Data on eight compounds can be found in patent US20100222410A1, “Nuclease compositions and methods” (Massachusetts Institute of Technology, priority 2008, published 2010).

One data set has as its target T1, YbeY (Escherichia coli, UniProt P0A898).
T1 construct: His (N, cleaved yes); MBP (N, cleaved yes); made in house; host or cells: E. coli, pET28A vector, IPTG induction
The data set is described as follows: Inhibition of YbeY RNase activity in the in vitro cleavage assay (total rRNA substrate). It counts as biochemical, E. coli. The protocol:
(§1) In vitro cleavage assays. All YbeY RNase assays were carried out in 50 mM HEPES pH 7.5 in a 20 μl final volume and used 0.2 μg of purified YbeY or 8.0 μg of MBP-YbeY. For assays using total rRNA or folA mRNA as substrate, 800 ng of total E. coli rRNA or synthesized folA mRNA was incubated with YbeY or MBP-YbeY for 30′ at 37° C., separated on an agarose/synergel mix gel and stained with ethidium bromide. Where indicated EDTA was added to 50 mM and MgSO4 was added to 5 mM. For assays using ΔybeY mutant 70S ribosomes as substrate, 800 ng of ΔybeY mutant 70S ribosomes was incubated with YbeY for the indicated time at 37° C., separated on an agarose/synergel mix gel and stained with ethidium bromide. For each reaction, 200 pmol of short RNA substrate was incubated with YbeY or MBP-YbeY for the indicated time at 37° C. Products were separated on denaturing PAGE. The ladder used for each substrate was made by alkaline hydrolysis of the respective substrate. A synthesized short rRNA of defined length was used as a reference for numerating the ladder.

For another data set, the system named is E. coli. Kind of data set: 17S rRNA accumulation after treatment of E. coli (total rRNA analysis). Type of data set: cell-based. The protocol: Polysome and rRNA analysis. Polysome profiles were obtained as described previously. rRNA was extracted from logarithmically growing cultures or separated ribosome fractions using Qiagen RNeasy Mini Kit. 16S and 23 rRNA were separated using Synergel/Agarose gel electrophoresis as described previously. […] The site-specific RNase H cleavage assay was performed as described previously followed by Northern hybridization using primers specific for the mature 3′termini of 16S, 23S, and 5S, respectively. 100 ng of total MC4100 or mutant RNA were used for each assay. All reactions were separated on denaturing polyacrylamide gels.

Data set [1] deals with 16S rRNA 3′ terminus mimic. Kind of data set: YbeY activity on 16S rRNA 3′ terminus mimics. It counts as biochemical, E. coli. The protocol:
as §1

Data set [2] relates to short, sequence-defined, RNA substrates. Kind of data set: In vitro cleavage assay, short sequence-defined RNA substrates. Type of data set: biochemical. As to conditions: for position of major cleavage product from the beginning of the duplex: partially dsRNA substrate with ssRNA 3′ terminus. The procedure:
as §1

In data set [3] the test system is double stranded or single stranded DNA. Kind of data set: YbeY activity on DNA. As to conditions: in vitro. Type of data set: biochemical.
Another data set relates to folA mRNA. Kind of data set: In vitro cleavage assay, defined mRNA as substrate. It counts as biochemical. The procedure:
as §1

Data set [4] has as its system purified 70S ribosomes isolated from the ΔybeY mutant. Kind of data set: In vitro cleavage assay, 70S ribosomes as substrate. Type of data set: biochemical, E. coli. Conditions: over time, absence of Mg^2+. The protocol:
as §1

Another data set concerns total E. coli rRNA. Kind of data set: In vitro cleavage assay, total rRNA as substrate. As to conditions: MBP-YbeY at four times the molar concentration of YbeY. Type of data set: biochemical. The procedure: as §1
[5] abbreviates: partially duplexed RNA substrate with 5′ ssRNA terminus, FIG. 3G.

T1 sequence (P0A898 whole entry): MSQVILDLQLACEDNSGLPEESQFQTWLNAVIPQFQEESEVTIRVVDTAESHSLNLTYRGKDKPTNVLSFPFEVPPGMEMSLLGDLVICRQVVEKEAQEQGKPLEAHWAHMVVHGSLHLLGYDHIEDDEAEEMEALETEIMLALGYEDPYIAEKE

Turning to `O=C(O)CN(CCN(CC(=O)O)CC(=O)O)CC(=O)O` [EDTA, ethylenediaminetetraacetic acid], the “degradation of total rRNA by YbeY in presence of EDTA” value on YbeY (EDTA added to 50 mM, 30′ at 37° C.) was “inhibited”.

On to `[Mg+2]` [Mg^+2, magnesium(II)], for which the “Mg^+2 concentration that inhibits YbeY's RNase activity” value on YbeY (in vitro, MgSO4 added) is on record as not below 5 mM.

As to `CC1(C)S[C@@H]2[C@H](NC(=O)[C@H](N)c3ccccc3)C(=O)N2[C@H]1C(=O)O` [ampicillan], the “accumulation of 17S rRNA” value in the data set on E. coli is “does not cause the accumulation of 17S”.

Consider `O=C(N[C@H](CO)[C@H](O)c1ccc([N+](=O)[O-])cc1)C(Cl)Cl` [chloramphenicol], for which the “accumulation of 17S rRNA” value in the data set with E. coli is on record as “induce the rapid accumulation of 17S rRNA”.

As for `OO` [hydrogen peroxide], the “accumulation of 17S rRNA” value in the data set on E. coli is on record as “does not cause the accumulation of 17S”.

As for `CN[C@@H]1[C@H](O)[C@H](NC)[C@H]2O[C@@]3(O)C(=O)C[C@@H](C)O[C@H]3O[C@@H]2[C@H]1O` [spectinomycin], the “accumulation of 17S rRNA” value in the data set on E. coli was “induce the rapid accumulation of 17S rRNA”.

For “YbeY: E. coli UPF0054 family member, purified as MBP fusion, MBP removed by TEV protease cleavage; C-terminal FLAG tag”, the “cleavage of 50 nucleotide ssRNA 16S rRNA 3′ terminus mimic” value in data set [1] (mimic alone, 4 μg of YbeY) is listed as “cleaved this substrate to generate a mature 3′ terminus”. Also, in data set [1] (mimic paired with a short mRNA, flap like structure), the “cleavage at the maturation site” value was “enhance YbeY cleavage at the maturation site”. Further, the “cleavage of single-stranded RNA (ssRNA) substrate, short sequence of 16S rRNA” value in data set [2] (FIG. 3C) was “cleaved”. Further, in data set [2] (FIG. 3D), the “cleavage of a perfect RNA duplex” value is given as “unable to cleave”. In data set [2] (hairpin with perfectly paired blunt terminus, FIG. 3H), the “cleavage of hairpin substrate within the loop” value is “efficiently cleaved”. The “position of major cleavage product from the beginning of the duplex” value in data set [2] (FIG. 3E) is “+1 bases”. Besides, the “position of major cleavage product from the beginning of the duplex” value in data set [2] (FIG. 3F) is reported as “+2 bases”. For the same compound, in data set [2] (setting [5]), the “cleavage inside the duplex” value was “no cleavage events were observed” and the “position of major cleavage product from the duplexed end” value is listed as “+2 bases”. Besides, the “position of the major YbeY cut” value in data set [2] (third partially dsRNA substrate with free 3′ ssRNA terminus, different nucleotide sequence) is listed as “flush with the dsRNA end”. Further, in data set [3], the “degradation of double stranded or single stranded DNA” value is on record as “did not degrade”. Also, the “degradation of a defined mRNA” value in the data set on folA mRNA was “can also degrade”. Besides, the “degradation of 70S ribosomes” value in data set [4] is listed as “effectively degraded”. Further, in the data set on total E. coli rRNA, the “RNase activity against total E. coli rRNA” value is “can degrade total E. coli rRNA”.

On to gentamycin, for which, in the data set on E. coli, the “accumulation of 17S rRNA” value is listed as “induce the rapid accumulation of 17S rRNA”.
